These results are taken from US7645740B2, “Peptide sequence found in Laminin 5 for treating skin impairments” (Laboratoires d'Anjou Centre National de la Recherche …, priority 2004, dated 2010).

Assay [1] relates to normal human keratinocytes. Briefly: Cell adhesion test to immobilized peptides, normal human keratinocytes. It counts as cell-based. How it is done:
Dose-dependent cell adhesion of normal human keratinocytes to various peptides 1, 2 and 3. The peptides were immobilized in 96-well plates at the concentrations given on the abscissa. 10^5 cells were deposited in each well and plates were incubated at 37° C. for 1 hour. After washing, attached cells were fixed and cell adhesion was measured as described in the methodology section.
Peptides 1, 2 and 3 were used for the cell adhesion experiments. A range of 7 decreasing concentrations (100 micrograms/ml, 50 micrograms/ml, 25 micrograms/ml, 12.5 micrograms/ml, 6.25 micrograms/ml, 3.125 micrograms/ml and 1.562 micrograms/ml) was made up by successive dilution in PBS (Phosphate Buffer Saline, KH2PO4 1.54 mM; Na2HPO4 1.42 mM; NaCl-131 mM) using a starting solution at a concentration of 1 mg/ml. These solutions were immediately distributed onto a 96-well culture plate (Greinher, Dutscher, Brumath, France) at a rate of 100 μl per well. Plates were then placed at +4° C. for 16 to 18 hours. The solutions were then removed by turning the plates and each well was saturated with a 1% PBS-BSA solution (bovine serum albumin). Three additional wells without the substrate underwent the same treatment and were used as blanks.
Epithelial cells were detached from the culture dishes using a trypsin/EDAT solution (0.05-0.02%) then suspended in DMEM medium without additives for the cell lines and in KBM-2 without additive for human keratinocytes. The number of seeded cells per well is given in the graphs (50,000 to 100,000 cells per well).
After cell seeding, the multi-well plates were placed in an incubator at 37° C. under 5% CO2. After incubation for 30 to 60 minutes, cells were observed under a phase contrast microscope in order to verify that the test was conducted correctly. The adhesion medium was then removed and each well was washed in a sterile PBS solution to remove non-adhering cells. The remaining cells, attached to the substrate, were then fixed using a solution of 1% glutaraldehyde in PBS for 15 minutes. The glutaraldehyde solution as removed and the cells were stained with a crystal violet solution diluted to 1% in distilled water for 30 minutes.
After rinsing in water several times, cells were permeabilized by means of a 0.02% triton solution for 15 minutes in order to solubilize the crystal violet. Absorbances were read at 570 nm using an ELISA plate reader (MR500, Dynatech, Guernsey, Channel Islands). Each experimental point was carried out in triplicate. The blank value represented the mean absorbance of 3 control wells (BSA). This was subtracted from each of the optical density values for the experimental points. We then calculated the mean for the three absorbance values for each of the triplicate samples.
The results are presented in the form of a graph with the absorbance values on the ordinate and the various substrate concentrations on the abscissa. Attached cells were photographed by phase contrast microscopy.
Freshly isolated normal human keratinocytes were used in a second experiment. As the basal keratinocytes of the epidermis are in direct contact with LN-5 in the skin, it was necessary to test their adhesion capacity to the peptide in question. Human keratinocytes were obtained from a foreskin biopsy (surgery waste, Pavillon T-Bis, Eduard Herriot Hospital). […]

In the next assay the test system is NHKs. Description: Cell adhesion of NHKs to peptides co-immobilized with laminin 5. In kind it is cell-based, human. On the procedure:
Peptides 1, 2 and 3 (variable quantities indicated) and laminin 5 (fixed quantity 0.2 mg) were co-immobilized in 96-well plates. 5×104 NHKs were deposited in each well and plates were incubated at 37° C. for 1 hour. After washing, attached cells were fixed and cell adhesion was measured as described in the methodology section. Cell adhesion in the presence of the peptide is given as a percentage of cell adhesion obtained with laminin 5 alone. Cells were observed by phase contrast microscopy then photographed. Bar=50 μm.
A decreasing range of LN5 (prepared in the laboratory) and COL4 (BD Biosciences, Le Pont de Claix, France) quantities was made up by successive dilution in PBS. These solutions were immediately distributed into a 96-well culture plate (Costar) at a rate of 100 μl per well. The experiment was conducted in exactly the same way as the experiment described in example 2. The results are given in the form of a graph with the absorbance values representing adhesion on the ordinate and the various substrate concentrations on the abscissa. Attached cells were photographed by phase contrast microscopy.
In order to analyse the effect of the peptide on cell adhesion to DEJ proteins, peptide TALRIRATYGEY (SEQ ID NO.1) (peptide 1) was co-immobilized with LN5 (FIG. 14) and COL4 (FIG. 15). The fixed quantity of matrix protein (LN5 and COL4) and the variable quantity of peptide are given on the graph (FIGS. 14 and 15). Peptides 2 and 3 (described in example 1) were used as controls for the experiment. The adhesion tests were carried out with NHK under the same conditions as the experiment given in FIG. 13 (50,000 cells per well). A peptide-free control representing 100% adhesion (LN5 only and COL4 only) was used to allow analysis of the effect of adhesion relating to the presence of the peptide. The results are given as a percentage of this control.

As to “TALRIRATYGEY (Human laminin 5) [Peptide 1]”, in assay [1] (0 to 10 micrograms immobilized peptide, 10^5 cells per well, 1 hour 37° C., absorbance 570 nm), the “cell adhesion to immobilized peptide” value was “effect also occurred”. Also, in assay [1] (FIG. 5), the “immobilized peptide quantity at which adhesion occurred” value is listed as 0.15 micrograms and the “immobilized peptide quantity at which maximum adhesion was achieved” value is 0.62 micrograms. The “effect on adhesion of NHKs to LN5 (co-immobilized)” value with NHKs (laminin 5 fixed quantity 0.2 mg, 50,000 cells per well, percentage of LN5 alone) was “gradual and significant increase”. The “change of adhesion to LN5, on average” value in the assay on NHKs (peptide quantity of 0.21 to 0.87 μg/well, LN5 alone = 100%) is “doubled”.
